Read-outs that look alike come from different tables or passages of the source.
Assays:
fibrinogen = assay: Fibrinogen levels in humans, post hoc analysis of study A4141001; type: in vivo, human; parameters: Mean Final FIBR / Mean Change FIBR: unit not given here; conditions: for Change in Fibrinogen, Difference (Gem - Placebo): MITT; for Fibrinogen Change, Difference (Gem-placebo) / Mean % Change FIBR / Mean Change FIBR / Mean Final FIBR / Fibrinogen Change, LS Mean (SE): subjects with fibrinogen baseline >400 mg/dL
Experimental: Week 0) and the end (Visit T8, Week 8). Analyses of covariance (ANCOVA) methods used in the original study A4141001 were again utilized in these analyses. For fibrinogen, baseline was defined as the last pretreatment visit, and endpoint was the last visit up to and including the day after last dose of medication. The least-squares means and p-values for change from baseline in fibrinogen were calculated using an ANCOVA model with the effects of baseline lipid value and treatment. Also, medians and p-values for percent change from baseline. […] This, consequently, was the definition for the modified intent-to treat (MITT) population.

plasma fibrinogen = assay: Fibrinogen levels in rats (electro immunoassay); type: in vivo, rat; conditions: male Sprague-Dawley rats
Experimental: Fifty-Six male Sprague-Dawley rats were obtained from Charles River Laboratories. All animals were allowed normal rat chow (Ralston-Purina) and water ad libitum in temperature-controlled rooms, under a 12-hour light, 12-hour dark cycle beginning with lights on at 6 AM. Rats were distributed to 7 groups of 8 rats per group. […] Control animals received vehicle alone. […] CI-719 is gemfibrozil. […] The plasma fibrinogen plasma levels were determined by electro immunoassay. […] Data are shown in FIG. 12 as mean±SEM of as percent of control fibrinogen levels. *p<0.001, two-sided unpaired t-test, compared to control.

CYP3A4 = CYP3A4 (Homo sapiens, UniProt P08684); assay: biochemical
Experimental: (§1) Human livers, HLM141, HLM143, and HLM144 were selected from the University of Washington Human Liver Bank for this study. […] The actual concentrations used for each of the other probes are specified below. […] The seven isoforms and the metabolic pathway of each of the probes used to monitor specific isoform activity are listed below.
CYP3A4: The 10-hydroxylation of (R)-warfarin (0.5 mM). The reaction is monitored by quantitative GC/MS using 10-hydroxywarfarin-(d5-phenyl) as the internal standard.

primary rat hepatocytes = assay: Cholesterol and triglyceride synthesis ([14C]acetate) in primary rat hepatocyte cultures; type: cell-based; conditions: for % Change in Synthesis, Cholesterol ± SEM / % Change in Synthesis, Triglyceride ± SEM: relative to vehicle cells
Experimental: At end of labeling period, cells were washed with room temperature D-PBS, 2.0 mL per well and the reaction is stopped with 1.0 mL 0.75 N HCl. Cells were scraped and transferred to 15×45 mm glass vial (1 dram size). Wells were washed with 1.0 mL of methanol and added to scraped cells, followed by the addition of 2.0 mL of chloroform. Vials were capped and vortexed for 5 seconds and centrifuged in a Beckman GS 6KR centrifuge at 3,600 rpm for 15 minutes at room temperature to separate phases. The bottom chloroform phase was transferred to new 15×45 mm glass vial, dried down in a […] evaporator at 37° C. under nitrogen gas. Vials were cooled to room temperature and samples resuspended in 130 μL of n-heptane:chloroform, 4:1 by vortexing for 5 seconds. […] Plates were dried for 30 minutes in an 80° C. gravity convection oven, cooled to room temperature, and wrapped in SaranTM Wrap. Plates were exposed overnight to phosphorimager plates, scanned on Typhoon PhosporImager (Molecular Dynamics), and analyzed using Imagequant software (Molecular Dynamics).

CYP2C9 = CYP2C9 (Homo sapiens, UniProt P11712); assay: biochemical
Experimental: as §1
CYP2C9: The 7-hydroxylation of (S)-warfarin (4 μM). The reaction is monitored by quantitative GC/MS using 7-hydroxywarfarin-(d5-phenyl) as the internal standard.

Chain of CYP3A4 (P08684 whole entry, canonical isoform): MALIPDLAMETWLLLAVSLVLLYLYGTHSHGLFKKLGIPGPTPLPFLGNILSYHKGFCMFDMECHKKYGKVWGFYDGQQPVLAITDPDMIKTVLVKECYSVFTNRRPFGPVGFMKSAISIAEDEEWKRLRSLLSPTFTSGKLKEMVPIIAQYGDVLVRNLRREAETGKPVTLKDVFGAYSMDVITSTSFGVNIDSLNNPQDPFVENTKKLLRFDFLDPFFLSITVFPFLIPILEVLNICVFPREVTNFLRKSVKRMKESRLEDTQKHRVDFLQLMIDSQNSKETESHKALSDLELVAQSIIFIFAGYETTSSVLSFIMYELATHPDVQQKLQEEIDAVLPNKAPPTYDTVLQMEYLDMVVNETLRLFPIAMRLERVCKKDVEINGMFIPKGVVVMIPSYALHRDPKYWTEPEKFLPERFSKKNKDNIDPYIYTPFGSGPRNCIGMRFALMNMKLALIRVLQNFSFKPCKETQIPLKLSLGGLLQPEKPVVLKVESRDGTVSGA
Chain of CYP2C9 (P11712 whole entry): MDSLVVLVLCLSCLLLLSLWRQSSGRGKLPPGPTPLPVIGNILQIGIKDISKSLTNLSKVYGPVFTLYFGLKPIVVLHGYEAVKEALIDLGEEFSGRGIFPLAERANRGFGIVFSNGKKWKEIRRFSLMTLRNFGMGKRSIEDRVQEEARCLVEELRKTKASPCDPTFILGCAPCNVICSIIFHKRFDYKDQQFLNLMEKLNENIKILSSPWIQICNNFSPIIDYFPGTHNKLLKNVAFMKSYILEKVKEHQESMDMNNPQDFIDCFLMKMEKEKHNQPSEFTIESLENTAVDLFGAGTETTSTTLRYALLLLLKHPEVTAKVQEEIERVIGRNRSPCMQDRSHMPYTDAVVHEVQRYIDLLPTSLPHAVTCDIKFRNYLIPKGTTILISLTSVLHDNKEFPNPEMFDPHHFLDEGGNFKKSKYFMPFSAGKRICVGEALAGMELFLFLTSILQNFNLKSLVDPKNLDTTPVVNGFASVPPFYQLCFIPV

For `CC(C)(CCCCOCCCCC(C)(C)C(=O)O)C(=O)O` [Gemcabene, 6,6′-oxybis(2,2-dimethylhexanoic acid)], the “Change in Fibrinogen, Difference (Gem - Placebo)” value (“Change in Fibrinogen, Difference” below) (fibrinogen; gemcabene 300 mg) was −13.0, the “Change in Fibrinogen, Difference” value (fibrinogen; gemcabene 600 mg) was −13.6 and the “Change in Fibrinogen, Difference” value (fibrinogen; gemcabene 900 mg) was −24.3. For the same molecule, the “Fibrinogen Change, Difference (Gem-placebo)” value (“Fibrinogen Change, Difference” below) (fibrinogen; gemcabene 300 mg) was 5.0, the “Mean % Change FIBR” value (fibrinogen; gemcabene 300 mg) was 6.7% and the “Mean Change FIBR” value (fibrinogen; gemcabene 300 mg) was 26.6. For the same molecule, the “Mean Final FIBR” value (fibrinogen; gemcabene 300 mg) was 454.4, the “Fibrinogen Change, LS Mean (SE)” value (fibrinogen; gemcabene 300 mg monotherapy) was 26.0 (29.3) and the “Fibrinogen Change, Difference” value (fibrinogen; gemcabene 600 mg) was −62.5. For the same molecule, the “Mean % Change FIBR” value (fibrinogen; gemcabene 600 mg) was −9.3%, the “Mean Change FIBR” value (fibrinogen; gemcabene 600 mg) was −41.4 and the “Mean Final FIBR” value (fibrinogen; gemcabene 600 mg) was 411.0. The “Fibrinogen Change, LS Mean (SE)” value (fibrinogen; gemcabene 600 mg monotherapy) was −41.5 (28.9), the “Fibrinogen Change, Difference” value (fibrinogen; gemcabene 900 mg) was −34.0 and the “Mean % Change FIBR” value (fibrinogen; gemcabene 900 mg) was −3.2%. The “Mean Change FIBR” value (fibrinogen; gemcabene 900 mg) was −12.9, the “Mean Final FIBR” value (fibrinogen; gemcabene 900 mg) was 435.9 and the “Fibrinogen Change, LS Mean (SE)” value (fibrinogen; gemcabene 900 mg monotherapy) was −13.0 (22.9). The “Mean % Change FIBR” value (fibrinogen; gemcabene at any of the doses) was −2.2%, the “Mean Change FIBR” value (fibrinogen; gemcabene at any of the doses) was −9.8 and the “Mean Final FIBR” value (fibrinogen; gemcabene at any of the doses) was 434.1. For the same molecule, the “reduction in plasma fibrinogen levels compared with control” value (plasma fibrinogen; 30 mg/kg/day oral, 14 days) was 52%, the “reduction in plasma fibrinogen levels compared with control” value (plasma fibrinogen; 100 mg/kg/day oral, 14 days (PD 72953)) was 57% and the IC50 (CYP3A4) was greater than 1500 µM. For the same molecule, the IC50 (CYP3A4; human, microsomes) was greater than 1500 µM, the “decrease of cholesterol synthesis (± SEM)” value (primary rat hepatocytes; 10 μM) was 61.5±1.8% and the “reduction of triglyceride synthesis” value (primary rat hepatocytes; 10 μM) was 8.9±4.5%. The “% Change in Synthesis, Cholesterol ± SEM” value (primary rat hepatocytes; 10 μM) was −61.5 ± 1.8%, the “% Change in Synthesis, Triglyceride ± SEM” value (primary rat hepatocytes; 10 μM) was −8.9 ± 45%^ns and the “decrease of cholesterol synthesis (± SEM)” value (primary rat hepatocytes; 30 μM) was 90.0±0.8%. For the same molecule, the “reduction of triglyceride synthesis” value (primary rat hepatocytes; 30 μM) was 72.1±2.9%, the “% Change in Synthesis, Cholesterol ± SEM” value (primary rat hepatocytes; 30 μM) was −90.0 ± 0.8% and the “% Change in Synthesis, Triglyceride ± SEM” value (primary rat hepatocytes; 30 μM) was −72.1 ± 2.9%. The IC50 (CYP2C9) was greater than 1500 µM and the IC50 (CYP2C9; human, microsomes) was greater than 1500 µM.

From US20170172955A1, “Treatment of Mixed Dyslipidemia” (priority 2015, published 2017)
